For this assay, the target named is T1, LRRK2 (endogenous, HiBit tagged) (Homo sapiens, UniProt Q5S007).
T1 construct: endogenous in cells; host or cells: HEK293 cells with HiBit knock-in at the endogenous LRRK2 locus, stably expressing firefly luciferase
Kind of assay: Endogenous LRRK2 degradation assay, endogenous gene C-terminally HiBit-tagged in HEK293 cells (Nano-Glo Dual Luciferase). It is filed as cell-based. The procedure, abridged:
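LRRK2-HiBit quantified via Nano-Glo Dual Luciferase in HEK293 knock-in cells co-expressing firefly luciferase, after 24 h exposure to compound (1 μM final top, 1:3, 11 points). Values normalised to DMSO median per plate and curve-fitted; Alamar Blue viability run alongside.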

Where [1] appears, read: endogenous HiBit-tagged LRRK2 in HEK293 cells, 24 hours treatment, read-out: **Endogenous WT Dmax (%).
[2] abbreviates: endogenous HiBit-tagged LRRK2 in HEK293 cells, 24 hours treatment, read-out: *Endogenous WT DC50.
[3] abbreviates: endogenous HiBit-tagged LRRK2 in HEK293 cells, 24 hours treatment, read-out: Endogenous WT DC50.
[4] abbreviates: endogenous HiBit-tagged LRRK2 in HEK293 cells, 24 hours treatment, read-out: Endogenous WT Dmax.
The mark [5] stands for this setting: endogenous HiBit-tagged LRRK2, HEK293 cells, 24 hours, read-out: **Endogenous WT Dmax (%).
[6] abbreviates: endogenous HiBit-tagged LRRK2, HEK293 cells, 24 hours, read-out: *Endogenous WT DC50.
Where [7] appears, read: endogenous HiBit-tagged LRRK2 in HEK293 cells, 24 hours, read-out: **Endogenous WT Dmax (%).
[8] abbreviates: endogenous HiBit-tagged LRRK2 in HEK293 cells, 24 hours, read-out: *Endogenous WT DC50.

These results are taken from patent US12559506B2, “Indazole based compounds and associated methods of use” (Arvinas Operations, Inc., priority 2021, dated 2026).

Read-outs that look alike come from different tables or passages of the source.

T1 sequence (Q5S007 whole entry): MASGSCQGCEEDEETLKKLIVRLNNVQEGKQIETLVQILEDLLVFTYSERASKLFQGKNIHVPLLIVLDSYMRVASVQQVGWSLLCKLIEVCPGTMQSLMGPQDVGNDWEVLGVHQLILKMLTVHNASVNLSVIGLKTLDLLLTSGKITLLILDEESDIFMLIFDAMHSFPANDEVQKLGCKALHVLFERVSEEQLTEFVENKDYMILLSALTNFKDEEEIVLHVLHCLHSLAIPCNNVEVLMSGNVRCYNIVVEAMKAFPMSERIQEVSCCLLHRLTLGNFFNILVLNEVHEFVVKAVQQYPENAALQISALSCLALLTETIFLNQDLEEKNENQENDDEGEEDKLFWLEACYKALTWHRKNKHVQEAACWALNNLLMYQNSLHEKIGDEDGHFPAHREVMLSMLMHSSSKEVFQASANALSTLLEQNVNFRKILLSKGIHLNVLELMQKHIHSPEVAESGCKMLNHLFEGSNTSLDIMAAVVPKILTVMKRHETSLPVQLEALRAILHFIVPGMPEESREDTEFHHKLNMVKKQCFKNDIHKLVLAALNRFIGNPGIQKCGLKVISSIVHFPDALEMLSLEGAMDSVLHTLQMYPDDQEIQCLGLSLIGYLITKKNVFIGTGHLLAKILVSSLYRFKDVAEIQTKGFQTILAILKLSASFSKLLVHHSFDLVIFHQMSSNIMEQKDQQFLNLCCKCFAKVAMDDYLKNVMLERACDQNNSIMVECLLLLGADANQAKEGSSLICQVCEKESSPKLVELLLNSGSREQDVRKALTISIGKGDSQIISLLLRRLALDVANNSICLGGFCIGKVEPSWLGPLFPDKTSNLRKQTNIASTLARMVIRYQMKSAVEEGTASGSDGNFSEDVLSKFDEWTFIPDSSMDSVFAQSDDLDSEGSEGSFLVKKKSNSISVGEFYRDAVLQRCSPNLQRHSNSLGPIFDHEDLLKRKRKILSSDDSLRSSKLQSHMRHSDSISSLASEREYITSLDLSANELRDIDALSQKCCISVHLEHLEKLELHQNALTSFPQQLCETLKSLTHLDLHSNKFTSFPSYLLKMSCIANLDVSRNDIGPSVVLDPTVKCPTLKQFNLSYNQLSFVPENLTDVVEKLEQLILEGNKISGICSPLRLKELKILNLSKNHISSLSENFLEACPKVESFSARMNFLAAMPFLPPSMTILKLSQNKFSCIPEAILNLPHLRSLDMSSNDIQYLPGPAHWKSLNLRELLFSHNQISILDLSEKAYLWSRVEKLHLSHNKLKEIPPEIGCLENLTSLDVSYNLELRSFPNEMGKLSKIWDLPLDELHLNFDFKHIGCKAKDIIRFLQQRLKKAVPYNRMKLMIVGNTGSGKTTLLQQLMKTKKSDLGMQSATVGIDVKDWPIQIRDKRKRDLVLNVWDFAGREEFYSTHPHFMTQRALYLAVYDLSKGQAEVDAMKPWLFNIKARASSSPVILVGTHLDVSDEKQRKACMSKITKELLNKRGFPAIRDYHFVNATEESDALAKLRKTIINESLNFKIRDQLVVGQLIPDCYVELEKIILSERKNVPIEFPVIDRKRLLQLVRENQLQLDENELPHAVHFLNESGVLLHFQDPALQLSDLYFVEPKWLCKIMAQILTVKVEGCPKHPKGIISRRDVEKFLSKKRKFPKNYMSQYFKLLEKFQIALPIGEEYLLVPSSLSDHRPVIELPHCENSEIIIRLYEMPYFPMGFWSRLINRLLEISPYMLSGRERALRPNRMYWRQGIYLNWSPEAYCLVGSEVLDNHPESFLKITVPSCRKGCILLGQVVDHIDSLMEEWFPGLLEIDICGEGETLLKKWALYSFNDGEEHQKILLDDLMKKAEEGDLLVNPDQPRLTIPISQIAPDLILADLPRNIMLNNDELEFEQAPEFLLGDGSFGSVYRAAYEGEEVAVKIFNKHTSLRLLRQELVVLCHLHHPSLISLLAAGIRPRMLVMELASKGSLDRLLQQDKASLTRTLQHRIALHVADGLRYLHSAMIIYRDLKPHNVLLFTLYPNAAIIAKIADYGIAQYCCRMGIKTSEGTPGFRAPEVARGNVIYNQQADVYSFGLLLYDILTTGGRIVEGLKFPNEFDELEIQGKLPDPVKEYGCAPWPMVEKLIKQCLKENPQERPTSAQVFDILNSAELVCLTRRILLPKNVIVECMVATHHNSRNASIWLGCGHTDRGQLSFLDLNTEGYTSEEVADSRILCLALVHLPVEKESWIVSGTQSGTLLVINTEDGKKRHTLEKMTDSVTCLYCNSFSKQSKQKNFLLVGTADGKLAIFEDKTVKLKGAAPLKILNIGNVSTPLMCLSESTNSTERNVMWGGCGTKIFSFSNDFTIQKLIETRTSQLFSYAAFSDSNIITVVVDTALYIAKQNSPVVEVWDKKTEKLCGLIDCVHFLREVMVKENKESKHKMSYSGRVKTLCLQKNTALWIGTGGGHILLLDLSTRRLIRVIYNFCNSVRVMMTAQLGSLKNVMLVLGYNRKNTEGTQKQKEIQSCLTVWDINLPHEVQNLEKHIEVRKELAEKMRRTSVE

As to `COc1c(N2CCC(CN3CC[C@@H](OC4CCN(c5cc(-c6n[nH]c7ccc(OC8(C)CC8)cc67)ncn5)CC4)CC3(C)C)CC2)ccc2c1CN(C1CCC(=O)NC1=O)C2=O` (stereo partly drawn) [Compound 319, 3-(5-(4-(((R)-2,2-dimethyl-4-((1-(6-(5-(1-methylcyclopropoxy)-1H-indazol-3-yl)pyrimidin-4-yl)piperidin-4-yl)oxy)piperidin-1-yl)methyl)piperidin-1-yl)-4-methoxy-1-oxoisoindolin-2-yl)piperidine-2,6-dione], the Dmax under setting [1] lay in the range of 50 to 70%. Moreover, the DC50 under setting [2] was less than 0.01 µM.
For `CC1(Oc2ccc3n[nH]c(-c4cc(N5CCC(CN6CC(F)(CC7CCN(c8ccc9c(c8F)CN(C8CCC(=O)NC8=O)C9=O)CC7)C6)CC5)ncn4)c3c2)CC1` (centres unmarked) [Compound 337, 3-{4-fluoro-5-[4-({3-fluoro-1-[(1-{6-[5-(1-methylcyclopropoxy)-2H-indazol-3-yl]pyrimidin-4-yl}piperidin-4-yl)methyl]azetidin-3-yl}methyl)piperidin-1-yl]-1-oxo-2,3-dihydro-1H-isoindol-2-yl}piperidine-2,6-dione] the same measures were not below 70% and less than 0.01 µM.
With `CC1(Oc2ccc3[nH]nc(-c4cc(N5CCC(CC6(F)CCN(CC7CCN(c8ccc9c(c8F)CN(C8CCC(=O)NC8=O)C9=O)CC7)CC6)CC5)ncn4)c3c2)CC1` (centres unmarked) [Compound 206, 3-[4-fluoro-5-[4-[[4-fluoro-4-[[1-[6-[5-(1-methylcyclopropoxy)-1H-indazol-3-yl]pyrimidin-4-yl]-4-piperidyl]methyl]-1-piperidyl]methyl]-1-piperidyl]-1-oxo-isoindolin-2-yl]piperidine-2,6-dione], under setting [3], the DC50 was less than 0.01 µM. The Dmax under setting [4] was not below 70%.
Turning to `CC1(Oc2cc3c(-c4cc(N5CCC(CN6CCN(CC7CCN(c8ccc9c(c8)C(=O)N(C8CCC(=O)NC8=O)C9=O)CC7)CC6)CC5)ncn4)n[nH]c3cn2)CC1` (centres unmarked) [Compound 178, 2-(2,6-dioxo-3-piperidyl)-5-[4-[[4-[[1-[6-[5-(1-methylcyclopropoxy)-1H-pyrazolo[3,4-c]pyridin-3-yl]pyrimidin-4-yl]-4-piperidyl]methyl]piperazin-1-yl]methyl]-1-piperidyl]isoindoline-1,3-dione], the Dmax under setting [5] is not below 70%. The DC50 under setting [6] is less than 0.01 µM.
Take `COc1c(N2CCC(CN3C[C@@H](C)N(CC4CCN(c5cc(-c6n[nH]c7ccc(OC8(C)CC8)cc67)ncn5)CC4)[C@@H](C)C3)CC2)ccc2c1CN(C1CCC(=O)NC1=O)C2=O` (stereo partly drawn) [Compound 287, 3-[5-(4-{[(3R,5S)-3,5-dimethyl-4-[(1-{6-[5-(1-methylcyclopropoxy)-1H-indazol-3-yl]pyrimidin-4-yl}piperidin-4-yl)methyl]piperazin-1-yl]methyl}piperidin-1-yl)-4-methoxy-1-oxo-2,3-dihydro-1H-isoindol-2-yl]piperidine-2,6-dione]: the Dmax under setting [1] lay within 50 to 70%. The DC50 under setting [2] is less than 0.01 µM.
Consider `CC1(Oc2ccc3[nH]nc(-c4cc(N5CCC(CN6CCN(C[C@@H]7CCN(c8ccc9c(c8F)CN(C8CCC(=O)NC8=O)C9=O)C7)CC6)CC5)ncn4)c3c2)CC1` (stereo partly drawn) [Compound 321, 3-{4-fluoro-5-[(3S)-3-({4-[(1-{6-[5-(1-methylcyclopropoxy)-1H-indazol-3-yl]pyrimidin-4-yl}piperidin-4-yl)methyl]piperazin-1-yl}methyl)pyrrolidin-1-yl]-1-oxo-2,3-dihydro-1H-isoindol-2-yl}piperidine-2,6-dione], for which the Dmax under setting [1] fell in the range of 50 to 70%. Besides, the DC50 under setting [2] is less than 0.01 µM.
For the molecule `CC1(Oc2ccc3[nH]nc(-c4cc(N5CCC(CN6C[C@@H]7C[C@H]6CN7CC6CCN(c7ccc8c(c7F)CN(C7CCC(=O)NC7=O)C8=O)CC6)CC5)ncn4)c3c2)CC1` (stereo partly drawn) [Compound 230, 3-[4-fluoro-5-(4-{[(1S,4S)-5-[(1-{6-[5-(1-methylcyclopropoxy)-1H-indazol-3-yl]pyrimidin-4-yl}piperidin-4-yl)methyl]-2,5-diazabicyclo[2.2.1]heptan-2-yl]methyl}piperidin-1-yl)-1-oxo-2,3-dihydro-1H-isoindol-2-yl]piperidine-2,6-dione], under setting [3], the DC50 is less than 0.01 µM. Moreover, under setting [4], the Dmax lay in the range of 50 to 70%.
As to `CC1(Oc2ccc3[nH]nc(-c4ccnc(N5CCC(O[C@H]6CC[C@H](CN7CCN(c8ccc9c(c8F)CN(C8CCC(=O)NC8=O)C9=O)CC7)CC6)CC5)c4)c3c2)CC1` (some centres unmarked) [Compound 354, 3-(4-fluoro-5-(4-(((1r,4r)-4-((1-(4-(5-(1-methylcyclopropoxy)-1H-indazol-3-yl)pyridin-2-yl)piperidin-4-yl)oxy)cyclohexyl)methyl)piperazin-1-yl)-1-oxoisoindolin-2-yl)piperidine-2,6-dione], the Dmax under setting [1] is 50 to 70%. Under setting [2], the DC50 is less than 0.01 µM.
With `CC1(Oc2ccc3[nH]nc(-c4cc(N5CCN(C[C@H]6CC[C@H](CN7CCN(c8ccc9c(c8Cl)CN(C8CCC(=O)NC8=O)C9=O)CC7)CC6)CC5)ncn4)c3c2)CC1` (some centres unmarked) [Compound 370, 3-[4-chloro-1-oxo-5-(4-{[(1r,4r)-4-[(4-{6-[5-(1-methylcyclopropoxy)-1H-indazol-3-yl]pyrimidin-4-yl}piperazin-1-yl)methyl]cyclohexyl]methyl}piperazin-1-yl)-2,3-dihydro-1H-isoindol-2-yl]piperidine-2,6-dione], the DC50 under setting [3] is less than 0.01 µM. For the same molecule, the Dmax under setting [4] lay in the range of 50 to 70%.
For `CC1(Oc2ccc3n[nH]c(-c4cc(N5CCC(O[C@H]6CC[C@H](CN7CCN(c8cc9c(cc8F)C(=O)N(C8CCC(=O)NC8=O)C9)CC7)CC6)CC5)ncn4)c3c2)CC1` (some centres unmarked) [Compound 208, 3-[6-fluoro-5-[4-[[4-[[1-[6-[5-(1-methylcyclopropoxy)-2H-indazol-3-yl]pyrimidin-4-yl]-4-piperidyl]oxy]cyclohexyl]methyl]piperazin-1-yl]-1-oxo-isoindolin-2-yl]piperidine-2,6-dione] the same measures were less than 0.01 µM and 50 to 70%.
Consider `C[C@H]1CN(c2cc(-c3[nH]nc4ccc(OC5(C)CC5)cc34)ncn2)CCN1CCN1CCC(CN2CCN(c3ccc4c(c3F)CN(C3CCC(=O)NC3=O)C4=O)CC2)CC1` (stereo partly drawn) [Compound 184, 3-[4-fluoro-5-[4-[[1-[2-[(2S)-2-methyl-4-[6-[5-(1-methylcyclopropoxy)-2H-indazol-3-yl]pyrimidin-4-yl]piperazin-1-yl]ethyl]-4-piperidyl]methyl]piperazin-1-yl]-1-oxo-isoindolin-2-yl]piperidine-2,6-dione], for which, under setting [5], the Dmax is not below 70%. The DC50 under setting [6] was less than 0.01 µM.
In the case of `CC1(Oc2ccc3n[nH]c(-c4cc(N5CCC(CO[C@H]6CC[C@H](CN7CCN(c8ccc9c(c8)C(=O)N(C8CCC(=O)NC8=O)C9=O)CC7)CC6)CC5)ncn4)c3c2)CC1` (some centres unmarked) [Compound 60, 2-(2,6-dioxo-3-piperidyl)-5-[4-[[4-[[1-[6-[5-(1-methylcyclopropoxy)-2H-indazol-3-yl]pyrimidin-4-yl]-4-piperidyl]methoxy]cyclohexyl]methyl]piperazin-1-yl]isoindoline-1,3-dione], under setting [7], the Dmax is not below 70%. The DC50 under setting [8] was less than 0.01 µM.
Turning to `COc1c(N2CCC(CN3CCN(CC4CCN(c5cc(-c6n[nH]c7cnc(OC8(C)CC8)cc67)ncn5)CC4)[C@@H](C)C3)CC2)ccc2c1CN(C1CCC(=O)NC1=O)C2=O` (stereo partly drawn) [Compound 282, 3-[4-methoxy-5-(4-{[(3S)-3-methyl-4-[(1-{6-[5-(1-methylcyclopropoxy)-1H-pyrazolo[3,4-c]pyridin-3-yl]pyrimidin-4-yl}piperidin-4-yl)methyl]piperazin-1-yl]methyl}piperidin-1-yl)-1-oxo-2,3-dihydro-1H-isoindol-2-yl]piperidine-2,6-dione], the Dmax under setting [1] was not below 70%. The DC50 under setting [2] was less than 0.01 µM.
For the molecule `C[C@H]1CN(c2cc(-c3[nH]nc4ccc(OC5(C)CC5)cc34)ncn2)CCN1CCN1CCN(CC2CCN(c3ccc4c(c3)CN(C3CCC(=O)NC3=O)C4=O)CC2)CC1` (stereo partly drawn) [Compound 65, 3-(5-{4-[(4-{2-[(2S)-2-methyl-4-{6-[5-(1-methylcyclopropoxy)-2H-indazol-3-yl]pyrimidin-4-yl}piperazin-1-yl]ethyl}piperazin-1-yl)methyl]piperidin-1-yl}-1-oxo-2,3-dihydro-1H-isoindol-2-yl)piperidine-2,6-dione], the Dmax under setting [7] is not below 70%. Besides, the DC50 under setting [8] is less than 0.01 µM.
Consider `COc1c(N2CCC(O[C@H]3CC[C@H](OC4CCN(c5cc(-c6n[nH]c7ccc(OC8(C)CC8)cc67)ncn5)CC4)CC3)CC2)ccc2c1CN(C1CCC(=O)NC1=O)C2=O` (some centres unmarked) [Compound 248, 3-[4-methoxy-1-oxo-5-(4-{[(1r,4r)-4-[(1-{6-[5-(1-methylcyclopropoxy)-1H-indazol-3-yl]pyrimidin-4-yl}piperidin-4-yl)oxy]cyclohexyl]oxy}piperidin-1-yl)-2,3-dihydro-1H-isoindol-2-yl]piperidine-2,6-dione], for which the DC50 under setting [3] is less than 0.01 µM. In addition, under setting [4], the Dmax lay in the range of 50 to 70%.
As to `CC1(Oc2cc3c(-c4cc(N5CCC(CN6CCN(CC7CCN(c8ccc9c(c8F)CN(C8CCC(=O)NC8=O)C9=O)CC7)CC6)CC5)ncn4)n[nH]c3cn2)CC1` (centres unmarked) [Compound 201, 3-(4-fluoro-5-(4-((4-((1-(6-(5-(1-methylcyclopropoxy)-1H-pyrazolo[3,4-c]pyridin-3-yl)pyrimidin-4-yl)piperidin-4-yl)methyl)piperazin-1-yl)methyl)piperidin-1-yl)-1-oxoisoindolin-2-yl)piperidine-2,6-dione], the Dmax under setting [5] was not below 70%. The DC50 under setting [6] is less than 0.01 µM.
